# Measured values taken from patent US20250115591A1, “NOVEL SULFONAMIDE CARBOXAMIDE COMPOUNDS” (INFLAZOME LIMITED, priority 2017, published 2025).
# Structures can show the parent of a compound that is named as a salt.
# Target: NLRP3 (Homo sapiens (Human), UniProt Q96P20)
# Assay: THP-1 cells pyroptosis assay (LPS + nigericin, resazurin read-out)
# Assay type: cell-based
# Settings: 1 μg/ml LPS, 5 μM nigericin
# Description: THP-1 cells (ATCC #TIB-202) were grown in RPMI containing L-glutamine (Gibco 15 #11835) supplemented with 1 mM sodium pyruvate (Sigma #S8636) and penicillin (100 units/ml)/streptomycin (0.1 mg/ml) (Sigma #P4333) in 10% Fetal Bovine Serum (FBS) (Sigma #F0804). The cells were routinely passaged and grown to confluency (˜10^6 cells/ml). On the day of the experiment, THP-1 cells were harvested and resuspended into RPMI medium (without FBS). The cells were then counted and viability (>90%) checked by Trypan blue (Sigma #T8154). Appropriate dilutions were made to give a concentration of 625,000 cells/ml. To this diluted cell solution was added LPS (Sigma #[4524) to give a 1 μg/ml Final Assay Concentration (FAC). 40μ of the final preparation was aliquoted into each well of a 96-well plate. The plate thus prepared was used for compound screening.
# The following method step-by-step assay was followed for compound screening. • 1. Seed THP-1 cells (25,000 cells/well) containing 1.0 μg/ml LPS in 40μ of RPMI medium (without FBS) in 96-well, black walled, clear bottom cell culture plates coated with poly-D-lysine (VWR #734-0317) • 2. Add 5 μl compound (8 points half-log dilution, with […]) or vehicle (DMSO 0.1% FAC) to the appropriate wells • 3. Incubate for 3 hrs at 37° C. and 5% CO2 • 4. Add 5 μl nigericin (Sigma #N7143) (FAC 5 μM) to all wells • 5. Incubate for 1 hr at 37° C. and 5% CO2 • 6. At the end of the incubation period, spin plates at 300×g for 3 mins and remove supernatant • 7. Then add 50 μl of resazurin (Sigma #R7017) (FAC 100 μM resazurin in RPMI medium without FBS) and incubate plates for a further 1-2 hrs at 37° C. and 5% CO2 • 8. Plates were read in an Envision reader at Ex 560 nm and Em 590 nm • 9. IC50 data is fitted to a non-linear regression equation (log inhibitor vs response-variable slope 4-parameters)
# Chain of NLRP3 (Q96P20 whole entry): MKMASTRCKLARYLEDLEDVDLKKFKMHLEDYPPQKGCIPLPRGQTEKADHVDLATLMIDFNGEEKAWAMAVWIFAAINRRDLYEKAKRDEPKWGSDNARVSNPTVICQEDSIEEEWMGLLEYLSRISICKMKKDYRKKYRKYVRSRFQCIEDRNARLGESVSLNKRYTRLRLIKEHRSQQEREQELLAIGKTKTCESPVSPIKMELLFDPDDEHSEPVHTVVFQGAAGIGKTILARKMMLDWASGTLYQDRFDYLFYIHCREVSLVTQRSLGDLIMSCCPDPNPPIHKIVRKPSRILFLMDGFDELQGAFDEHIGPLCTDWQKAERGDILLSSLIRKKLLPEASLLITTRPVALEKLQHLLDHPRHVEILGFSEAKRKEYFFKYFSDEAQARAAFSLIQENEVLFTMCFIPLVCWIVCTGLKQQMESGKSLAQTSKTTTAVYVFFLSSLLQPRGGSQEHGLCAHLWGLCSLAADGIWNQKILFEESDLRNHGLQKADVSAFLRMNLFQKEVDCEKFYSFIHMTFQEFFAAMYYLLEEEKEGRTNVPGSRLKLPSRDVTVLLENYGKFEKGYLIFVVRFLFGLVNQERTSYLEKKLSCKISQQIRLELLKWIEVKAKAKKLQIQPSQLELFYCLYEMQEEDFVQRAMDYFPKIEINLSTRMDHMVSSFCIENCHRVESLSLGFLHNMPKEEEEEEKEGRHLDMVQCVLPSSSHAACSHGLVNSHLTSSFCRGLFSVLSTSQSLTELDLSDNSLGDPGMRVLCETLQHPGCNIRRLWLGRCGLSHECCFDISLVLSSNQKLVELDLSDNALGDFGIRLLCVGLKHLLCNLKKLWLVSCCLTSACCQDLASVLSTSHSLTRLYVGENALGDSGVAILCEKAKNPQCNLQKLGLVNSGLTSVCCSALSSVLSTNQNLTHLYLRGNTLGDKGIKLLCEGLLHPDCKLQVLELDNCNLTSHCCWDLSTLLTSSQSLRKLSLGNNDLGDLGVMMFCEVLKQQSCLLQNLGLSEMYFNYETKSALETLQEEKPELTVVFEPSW
row,SMILES,IC50 [nM]
1,"COc1cc(-c2cc(F)cc(C(C)C)c2NC(=O)NS(=O)(=O)C2CN(Cc3cccnc3)C2)ccn1 [Example 177, N-((4-Fluoro-2-isopropyl-6-(2-methoxypyridin-4-yl)phenyl)carbamoyl)-1-(pyridin-3-ylmethyl)azetidine-3-sulfonamide]",1000 to 10000
2,"CC(C)N1CCC(S(=O)(=O)NC(=O)Nc2c3c(cc4c2CCC4)CCC3)C1=O (centres unmarked) [Example 68, N-((1,2,3,5,6,7-Hexahydro-s-indacen-4-yl)carbamoyl)-1-isopropyl-2-oxopyrrolidine-3-sulfonamide, potassium salt]",< 1000
3,"O=C(Nc1c2c(cc3c1CCC3)CCC2)NS(=O)(=O)C1CCN(C2CCC2)CC1 [Example 15, 1-Cyclobutyl-N-((1,2,3,5,6,7-hexahydro-s-indacen-4-yl)carbamoyl)piperidine-4-sulfonamide, potassium salt]",1000 to 10000
4,"CN1CCCC(S(=O)(=O)NC(=O)Nc2c3c(cc4c2CCC4)CCC3)C1 (centres unmarked) [Example 60, N-((1,2,3,5,6,7-Hexahydro-s-indacen-4-yl)carbamoyl)-1-methylpiperidine-3-sulfonamide, potassium salt]",1000 to 10000
5,"CC(C)c1cc(F)cc(-c2ccnc(C#N)c2)c1NC(=O)NS(=O)(=O)C1CN(Cc2cccnc2)C1 [Example 169, N-((2-(2-Cyanopyridin-4-yl)-4-fluoro-6-isopropylphenyl)carbamoyl)-1-(pyridin-3-ylmethyl)azetidine-3-sulfonamide]",1000 to 10000
6,"O=C(Nc1c2c(cc3c1CCC3)CCC2)NS(=O)(=O)C1CCN(C(=O)C(F)(F)F)C1 (centres unmarked) [Example 54, N-((1,2,3,5,6,7-Hexahydro-s-indacen-4-yl)carbamoyl)-1-(2,2,2-trifluoroacetyl)pyrrolidine-3-sulfonamide, potassium salt]",1000 to 10000
7,"CCN1CC2(CC(S(=O)(=O)NC(=O)Nc3c4c(cc5c3CCC5)CCC4)C2)C1 [Example 50, 2-Ethyl-N-((1,2,3,5,6,7-hexahydro-s-indacen-4-yl)carbamoyl)-2-azaspiro[3.3]heptane-6-sulfonamide, potassium salt]",1000 to 10000
8,"CC(C)n1cccc(S(=O)(=O)NC(=O)Nc2c3c(cc4c2CCC4)CCC3)c1=O [Example 182, N-((1,2,3,5,6,7-Hexahydro-s-indacen-4-yl)carbamoyl)-1-isopropyl-2-oxo-1,2-dihydropyridine-3-sulfonamide]",1000 to 10000
9,"CC(C)(C)OC(=O)N1CC(S(=O)(=O)NC(=O)Nc2c3c(cc4c2CCC4)CCC3)C1 [Example 77, tert-Butyl 3-(N-((1,2,3,5,6,7-hexahydro-s-indacen-4-yl)carbamoyl)sulfamoyl)azetidine-1-carboxylate, potassium salt]",1000 to 10000
10,"O=C(Nc1c2c(cc3c1CCC3)CCC2)NS(=O)(=O)C1CCN(CC(F)(F)F)CC1 [Example 67, N-((1,2,3,5,6,7-Hexahydro-s-indacen-4-yl)carbamoyl)-1-(2,2,2-trifluoroethyl)piperidine-4-sulfonamide, potassium salt]",1000 to 10000
11,"N#CCN1CCC(S(=O)(=O)NC(=O)Nc2c3c(cc4c2CCC4)CCC3)CC1 [Example 14, 1-(Cyanomethyl)-N-((1,2,3,5,6,7-hexahydro-s-indacen-4-yl)carbamoyl)piperidine-4-sulfonamide, potassium salt]",1000 to 10000
12,"CCN1CC(S(=O)(=O)NC(=O)Nc2c(-c3ccnc(C#N)c3)cc(F)cc2C(C)C)C1 [Example 165, N-((2-(2-Cyanopyridin-4-yl)-4-fluoro-6-isopropylphenyl)carbamoyl)-1-ethylazetidine-3-sulfonamide]",1000 to 10000
13,"O=C(Nc1c2c(cc3c1CCC3)CCC2)NS(=O)(=O)C1CCCN(C(=O)NC2CCC2)C1 (centres unmarked) [Example 27, N-Cyclobutyl-3-(N-((1,2,3,5,6,7-hexahydro-s-indacen-4-yl)carbamoyl)sulfamoyl)piperidine-1-carboxamide, potassium salt]",1000 to 10000
14,"O=C(Nc1c2c(cc3c1CCC3)CCC2)NS(=O)(=O)C1CN(Cc2ccccn2)C1 [Example 104, N-((1,2,3,5,6,7-Hexahydro-s-indacen-4-yl)carbamoyl)-1-(pyridin-2-ylmethyl)azetidine-3-sulfonamide, potassium salt]",< 1000
15,"COC(=O)CN1CCC(S(=O)(=O)NC(=O)Nc2c3c(cc4c2CCC4)CCC3)CC1 [Example 21, Methyl 2-(4-(N-((1,2,3,5,6,7-Hexahydro-s-indacen-4-yl)carbamoyl)sulfamoyl)piperidin-1-yl)acetate, potassium salt]",1000 to 10000
16,"CCC(CC)N1CCC(S(=O)(=O)NC(=O)Nc2c3c(cc4c2CCC4)CCC3)C1 (centres unmarked) [Example 81, N-((1,2,3,5,6,7-Hexahydro-s-indacen-4-yl)carbamoyl)-1-(pentan-3-yl)pyrrolidine-3-sulfonamide, potassium salt]",1000 to 10000
17,"C#CCN1CCCC(S(=O)(=O)NC(=O)Nc2c3c(cc4c2CCC4)CCC3)C1 (centres unmarked) [Example 59, N-((1,2,3,5,6,7-Hexahydro-s-indacen-4-yl)carbamoyl)-1-(prop-2-yn-1-yl)piperidine-3-sulfonamide, potassium salt]",1000 to 10000
18,"CN(C)CCn1cc(S(=O)(=O)NC(=O)Nc2c3c(cc4c2CCC4)CCC3)ccc1=O [Example 184, 1-(2-(Dimethylamino)ethyl)-N-((1,2,3,5,6,7-hexahydro-s-indacen-4-yl)carbamoyl)-6-oxo-1,6-dihydropyridine-3-sulfonamide]",1000 to 10000
19,"CC(C)c1cc(F)cc(-c2ccnc(C#N)c2)c1NC(=O)NS(=O)(=O)C1CN(C(C)C)C1 [Example 157, N-((2-(2-Cyanopyridin-4-yl)-4-fluoro-6-isopropylphenyl)carbamoyl)-1-isopropylazetidine-3-sulfonamide]",1000 to 10000
20,"CC(=O)N1CC(N2CCC(S(=O)(=O)NC(=O)Nc3c4c(cc5c3CCC5)CCC4)CC2)C1 [Example 79, 1-(1-Acetylazetidin-3-yl)-N-((1,2,3,5,6,7-hexahydro-s-indacen-4-yl)carbamoyl)piperidine-4-sulfonamide, potassium salt]",1000 to 10000
21,"O=C(Nc1c2c(cc3c1CCC3)CCC2)NS(=O)(=O)C1CN2CCC1CC2 (centres unmarked) [Example 43, N-((1,2,3,5,6,7-Hexahydro-s-indacen-4-yl)carbamoyl) quinuclidine-3-sulfonamide, potassium-salt]",1000 to 10000
22,"O=C(Nc1c2c(cc3c1CCC3)CCC2)NS(=O)(=O)C1CN(C2C[S+]([O-])C2)C1 (centres unmarked) [Example 117, N-((1,2,3,5,6,7-Hexahydro-s-indacen-4-yl)carbamoyl)-1-(1-oxidothietan-3-yl)azetidine-3-sulfonamide, potassium salt]",< 1000
23,"CC(C)c1cc(F)cc(-c2cccnc2)c1NC(=O)NS(=O)(=O)C1CCN(C(C)C)CC1 [Example 176, N-((4-Fluoro-2-isopropyl-6-(pyridin-3-yl)phenyl)carbamoyl)-1-isopropylpiperidine-4-sulfonamide]",1000 to 10000
24,"CCN1CCC(S(=O)(=O)NC(=O)Nc2c(-c3ccnc(OC)c3)ccc3c2CCC3)CC1 [Example 188, 1-Ethyl-N-((5-(2-methoxypyridin-4-yl)-2,3-dihydro-1H-inden-4-yl)carbamoyl)piperidine-4-sulfonamide, potassium salt]",1000 to 10000
25,"CCN1CCC(N2CC(S(=O)(=O)NC(=O)Nc3c4c(cc5c3CCC5)CCC4)C2)CC1 [Example 73, 1-(1-Ethylpiperidin-4-yl)-N-((1,2,3,5,6,7-hexahydro-s-indacen-4-yl)carbamoyl)azetidine-3-sulfonamide, potassium salt]",1000 to 10000
26,"CC(=N)N1CC(S(=O)(=O)NC(=O)Nc2c3c(cc4c2CCC4)CCC3)C1 [Example 100, N-((1,2,3,5,6,7-Hexahydro-s-indacen-4-yl)carbamoyl)-1-(1-iminoethyl)azetidine-3-sulfonamide, potassium salt]",1000 to 10000
27,"C#CCCC1(CCN2CC(S(=O)(=O)NC(=O)Nc3c4c(cc5c3CCC5)CCC4)C2)N=N1 [Example 111, 1-(2-(3-(But-3-yn-1-yl)-3H-diazirin-3-yl)ethyl)-N-((1,2,3,5,6,7-hexahydro-s-indacen-4-yl)carbamoyl)azetidine-3-sulfonamide, potassium salt]",1000 to 10000
28,"CC(C)(O)CN1CC(S(=O)(=O)NC(=O)Nc2c3c(cc4c2CCC4)CCC3)C1 [Example 84, N-((1,2,3,5,6,7-Hexahydro-s-indacen-4-yl)carbamoyl)-1-(2-hydroxy-2-methylpropyl)azetidine-3-sulfonamide, potassium salt]",< 1000
29,"CCN1CCC(S(=O)(=O)NC(=O)Nc2c(-c3ccnc(C#N)c3)ccc3c2CCC3)CC1 [Example 190, N-((5-(2-Cyanopyridin-4-yl)-2,3-dihydro-1H-inden-4-yl)carbamoyl)-1-ethylpiperidine-4-sulfonamide, potassium salt]",1000 to 10000
